According to patent US10730892B2, “Homoallylamines as formaldehyde-responsive triggers” (The Regents of the University of California, priority 2015, dated 2020):
Like-named read-outs stand apart in the source and are kept apart here.

Columns and labels:
MCF7 cells = assay: Confocal microscopy of FAP-1 in LSD1 inhibitor-treated MCF7 cells (endogenous FA); type: cell-based, human; settings: 10 μM FAP-1 60 min
From the text: Scale bar represents 50 μm in all images. […] Scale bar represents 50 μm in all images. […] Error bars denote SEM, n=6. *P<0.005

[1] = Fluorescence properties of compounds 3, 4, 5 and FP1 (Table 1); type: physicochemical
From the text: Such red-shifted fluorophores are desirable because of low autofluorescence, minimal phototoxicity, and negligible interference from biomolecules when employed in live cell imaging. […] In the presence of FA, a reversible condensation event yielded an iminium intermediate which can undergo a charge-promoted [3,3]-sigmatropic rearrangement-hydrolysis sequence to expel the aryl nitro group and afford a highly fluorescent indole-3-carboxaldehyde product (ΦF=0.11) (Table 1). Of note, the aldehyde is strategically positioned at C3 such that after the reaction cascade, the N1 lone pair electrons can delocalize into the π-system rather than quench fluorescence via an acceptor-excited PeT (a-PeT) pathway. In this regard, silicon rhodol 3, without the carboxaldehyde, is non-fluorescent (Table 1).

[2] = pH-Fluorescence profile of compound 4; type: physicochemical; settings: pH 2.0 to 10.4, 25° C.
Description: FIG. 7 depicts the pH-Fluorescence profile of compound 4 (as denoted in FIG. 3). Fluorescence intensity was measured at 25° C. for the following pH values and indicated buffers: 50 mM Glycine (2.0, 2.4, 2.7, 3.1, 3.5), 50 mM sodium acetate (4.0, 4.4, 4.8, 5.2, 5.6), 50 mM MES (5.6, 6.0, 6.4, 6.8), 50 mM HEPES (6.8, 7.2, 7.4, 7.8, 8.2), 50 mM Tris (8.2, 8.6, 9.0, 9.5) and 50 mM glycine (9.5, 9.9, 10.4).

HEK293TN cells = settings: 3 hrs
Description: Prior to imaging, cells were allowed to recover in FA-free buffer for 30 min. […] Because FA is a powerful fixative, cell viability assays were performed to determine the cytotoxicity of FA under experimental conditions. A dye exclusion protocol was employed, utilizing trypan blue to selectively stain and distinguish dead cells from those that were viable. […] To further verify that the cell populations under investigation were indeed alive, DAPI, a cell permeable nuclear and chromosome counterstain, was employed to identify intact nuclei (FIG. 16).

HEK293T cells [3] = settings: FA in BSS, 37° C., 30 min
[4] = Description: (§1) 999 μL of a 10.01 μM solution of FAP-1 (for 4-hydroxynonenal cuvette: 998.4 μL of a 10.02 μM solution of FAP-1; for glutathione cuvette: 950 μL of a 10.53 μM solution of FAP-1) in 20 mM PBS (pH 7.4) was prepared by diluting a 10 mM DMSO stock solution of FAP-1 into pre-warmed PBS (37° C.) in a 1-cm×1-cm quartz cuvette. The analyte of interest was added to the cuvette to bring the concentration of analyte to 100 μM (unless otherwise specified) and the concentration of FAP-1 to 10 μM, followed by mixing by vigorous pipetting for 5 seconds, and a t=0 spectrum was acquired. The cuvette was placed in a 37° C. water bath. Emission spectra were recorded by quickly removing the cuvette from the water bath, obtaining the spectrum, and returning the cuvette to the bath. Spectra were taken at t=0, 20, 45, 60, 90, and 120 min (see FIG. 24B).
1 μL of 100 mM stock solution of methylglyoxal in Milli-Q water (freshly prepared by diluting 7.7 μL of neat methylglyoxal to 500 μL with Milli-Q water) was added to 999 μL of a 10.01 μM solution of FAP-1 in PBS.

HEK293T cells [5] = tested on: HEK293T cells
Description: FIG. 29 depicts a photostability study with FAP-1. A field of HEK293T cells loaded with 10 μM FAP-1 in BSS at 37° C. was irradiated using 50% laser power (dashed line) or 6% laser power (solid line) with a pinhole of 1 airy unit for 100 scans. Emission was normalized to the first scan for each field. Error bars represent standard deviation, n=5.

[6] = remark: listed apart in the source
Description: A modified version of the shake method was used to determine the partition coefficient or log Doct/wat value for FAP-1 (Rothbard et al., J. Am. Chem. Soc. 2004, 126:9506-9507). Briefly, 1-octanol-saturated PBS (248 μL), PBS-saturated 1-octanol (248 μL), and 1 mM solution of FAP-1 in DMSO (5 μL) were added to a 0.6-mL microcentrifuge tube. The dye was partitioned between the layers via vortexing for 30 s. The microcentrifuge tube was centrifuged on a bench-top minifuge at 4 k rpm for 4 minutes to separate the layers. A portion of the 1-octanol layer (200 μL) was transferred to a 96-well plate, and the fluorescence emission from 665-700 nm was measured (excitation at 645 nm) using a Synergy Mx multimode microplate reader (BioTek Instruments, Inc.) equipped with fluorescence module. The concentration of dye in the 1-octanol layer was determined by comparison with a standard curve constructed from six data points.

HEK293T cells [7] = settings: 10 μM FAP-1 30 min, FA 200 μM to 1 mM
Description: Statistical analyses for multiple comparisons were performed using one-way ANOVA with the Bonferroni correction in the statistical analysis software, R.

[8] = remark: listed apart in the source
Description: 999 μL of a 10.01 μM solution of FAP-1 in 20 mM PBS (pH 7.4) was prepared by diluting a 10 mM dimethylsulfoxide (DMSO) stock solution of FAP-1 into pre-warmed PBS (37° C.) in a 1-cm×1-cm quartz cuvette. 1 μL of 100 mM stock solution of FA (freshly prepared by diluting commercial 37 wt. % in H2O FA solution) was added (for a final concentration of 100 μM), and the mixture was mixed by vigorous pipetting for 5 s, followed by acquisition of the t=0 spectrum. Emission spectra (λex=645 nm, λem=655-750 nm) were collected at 0, 20, 45, 60, 90, and 120 min (see FIG. 24A). Temperature was maintained at 37° C. throughout the experiment by immersing the cuvette in a heated water bath between measurements.
999 μL of a 10.01 μM solution of FAP-1 in 20 mM PBS (pH 7.4) was prepared by diluting a 10 mM DMSO stock solution of FAP-1 into pre-warmed PBS (37° C.) in a 1-cm×1-cm quartz cuvette. 1 μL of a FA stock solution (either 5 mM or 1 mM, freshly prepared by diluting commercial 37 wt. % FA solution with Milli-Q water) or 1 μL of PBS was added (for a final concentration of 5 μM, 1 μM, or 0 μM FA), and the mixture was mixed by vigorous pipetting for 5 s and placed in a 37° C. water bath. Emission spectra were obtained after 120 min. Statistical analyses for multiple comparisons were performed using one-way ANOVA with the Bonferroni correction in the statistical analysis software, R.

[9] = remark: listed apart in the source
Description: as §1

[10] = remark: listed apart in the source
Description: Milli-Q water was used to prepare all aqueous solutions. All spectroscopic measurements were performed in 20 mM PBS, pH 7.4. Absorption spectra were recorded using a Varian Cary 50 spectrophotometer, and fluorescence spectra were recorded using a Photon Technology International Quanta Master 4 L-format scan spectrofluorometer equipped with an LPS-220B 75-W xenon lamp and power supply, A-1010B lamp housing with integrated igniter, switchable 814 photocounting/analog photomultiplier detection unit, and MD5020 motor driver. Samples for absorption and emission measurements were contained in 1-cm×1-cm quartz cuvettes (1.4-mL volume, Starna).
Quantum yield was determined using zinc phthalocyanine (ZnPc) as a standard according to a published method (Williams et al., Analyst. 1983, 108:1067-1071). For FAP-1 and ZnPc, the absorbance spectra were measured within an absorbance range below 0.1. The quantum yield was calculated according to the equation: ϕsample=ϕstandard (Gradsample/Gradstandard)(ηsample^2/ηstandard^2); where ϕ is the quantum yield, ϕstandard=0.34 in 1% pyridine/toluene (Bishop et al., J. Photochem. Photobiol. 1995, 90:39-44), Grad is the slope of the plot of absorbance versus integrated emission intensity, and η is the refractive index of the solvent.

[11] = in 1% pyridine/toluene; cited from earlier work

With N[C@@H]1C[C@H]1c1ccccc1 (racemic) [TCP, tranylcypromine] the “decrease in FAP-1 fluorescence signal compared to control cells” value (MCF7 cells; MCF7, 20 μM inhibitor for 20 h) was “ca. 20%”.
Cc1cc2c(ccn2C)cc1C1=C2C=CC(=O)C=C2[Si](C)(C)c2c1cc1c3c2CCCN3CCC1 [Compound 3, 9-(1,6-dimethyl-1H-indol-5-yl)-14,14-dimethyl-2,3,5,6,7,14-hexahydro-1H,12H-benzo[5,6]silino[2,3-f]pyrido[3,2,1-ij]quinolin-12-one] gave a ε [1] of 86000 M⁻¹ cm⁻¹, a λabs [1] of 633 nm and a λem [1] of 649 nm. For the same compound, the “fluorescence (in words)” value ([1]; without the carboxaldehyde) was “non-fluorescent”.
For Cc1cc2c(cc1C1=C3C=CC(=O)C=C3[Si](C)(C)c3c1cc1c4c3CCCN4CCC1)c(C=O)cn2C [Compound 4, 5-(14,14-dimethyl-12-oxo-2,3,6,7,12,14-hexahydro-1H,5H-benzo [5,6]silino [2,3-f]pyrido[3,2,1-ij]quinolin-9-yl)-1,6-dimethyl-1H-indole-3-carbaldehyde], the “Φ (quantum efficiency, ΦF)” value [1] was 0.13, the ε [1] was 106000 M⁻¹ cm⁻¹ and the λabs [1] was 633 nm. For the same compound, the λem [1] was 649 nm, the “Φ (quantum efficiency, ΦF)” value ([1]; listed as indole-3-carboxaldehyde product) was 0.11 and the pH-fluorescence profile [2] was “high fluorescence intensity was maintained under physiological conditions”.
With C=CCC(N)c1cn(C)c2cc(C)c(C3=C4C=CC(=O)C=C4[Si](C)(C)c4c3cc3c5c4CCCN5CCC3)cc12 (stereo not drawn) [Compound 5, 9-(3-(1-aminobut-3-en-1-yl)-1,6-dimethyl-1H-indol-5-yl)-14,14-dimethyl-2,3,5,6,7,14-hexahydro-1H,12H-benzo[5,6]silino[2,3-f]pyrido[3,2,1-ij]quinolin-12-one] the “Φ (quantum efficiency, ΦF)” value [1] was 0.02, the ε [1] was 100000 M⁻¹ cm⁻¹ and the λabs [1] was 633 nm. The λem [1] was 649 nm.
For C=O [FA, Formaldehyde], the “dead cells (trypan blue)” value (HEK293TN cells; 1 mM FA) was 5%, the “cells no longer viable (trypan blue)” value (HEK293TN cells; 5 mM FA) was roughly 35% and the “cell viability (propidium iodide assay)” value (HEK293T cells [3]) was “no difference between FA-treated and untreated cells”. For the same compound, the “loss in viability (trypan blue)” value (NS1 cells; NS1, 2.5 mM FA, 3 hrs) was “ca. 12%” and the “cell death (trypan blue)” value (NS1 cells; NS1, 5 mM FA) was “considerable cell death”.
In the case of C=CCC1NC2(c3ccc(C(=O)O)cc31)c1ccc(N(C)C)cc1[Si](C)(C)c1cc(N(C)C)ccc12 (stereo not drawn) [FAP-1], the fluorescence response ([4]; 10 μM methylglyoxal) is reported as “not responsive”, the fluorescence response ([4]; 100 μM methylglyoxal (super-physiological)) is reported as “small response” and the photostability (HEK293T cells [5]; 50% laser power) is reported as “slight photobleaching”. The photostability (HEK293T cells [5]; 100 scans with 6% laser power) was “consistent fluorescence intensity”, the “log Doct/wat” value ([6]; 1-octanol / PBS, mean±standard deviation, triplicate) was 0.53±0.01 and the “solubility in aqueous solution” value ([6]; aqueous solution buffered to pH 7.4) was “good solubility”. For the same compound, the “fluorescence turn-on in FA-treated cells over control cells” value (HEK293T cells [7]) was “significant and dose-dependent fluorescence turn-on”, the “turn-on response at saturation” value ([8]; 10 μM FAP-1, 100 μM FA, extended incubation times) was “ca. 45 fold” and the “fold fluorescence turn-on response” value ([8]; 10 μM FAP-1, 100 μM FA, pH 7.4, 37° C., within 1 h) was “ca. 8 fold”. The “in vitro detection limit for FA” value ([8]; 10 μM FAP-1, 2-hour cutoff) was 5 µM, the “selectivity for FA over competing RCS and carbonyl-containing molecules” value ([9]; 10 μM FAP-1, 100 μM analyte (glucose 1 mM), 37° C.) was “good selectivity” and the change in fluorescence ([9]; 100 μM H2O2) was “no change in fluorescence”. For the same compound, the change in fluorescence ([9]; 5 mM glutathione) was “no change in fluorescence”, the ε650 ([10]; 20 mM PBS, pH 7.4) was 190 M^1 cm^−1 and the “φfl (quantum yield)” value ([10]; 20 mM PBS, pH 7.4, ZnPc as standard) was 0.36. It also gave a λem ([10]; turn-on response to FA) of 662 nm and a λmax ([10]; turn-on response to FA) of 645 nm.
With c1ccc([C@@H]2C[C@H]2NC2CCNCC2)cc1 [GSK-LSD1] the “effect on FAP-1 fluorescence” value (MCF7 cells; MCF7, 1 μM inhibitor for 20 h) was “attenuated FAP-1 fluorescence”.
In the case of [Zn+2].c1ccc2c(c1)-c1nc-2nc2[n-]c(nc3nc([n-]c4nc(n1)-c1ccccc1-4)-c1ccccc1-3)c1ccccc21 [ZnPc, zinc phthalocyanine], the “ϕstandard (quantum yield)” value [11] is given as 0.34.
